Assay results reported in publication PMC11751314, “Engineering of acyl ligase domain in non-ribosomal peptide synthetases to change fatty acid moieties of lipopeptides” (Communications Chemistry, 2025).

Legend:
[1] = target: T1, (ituAL-ACP1) (Bacillus subtilis, UniProt Q93I56, F208G); test: HPLC of fatty acyl-AMP formed ([…] nm); type: biochemical; conditions: 1 mM fatty acid, 1 mM ATP, 50 mM MgCl2, 50 mM HEPES pH 7.5, 0.01% Brij35, 30% DMSO, 30 °C, 30 min; 10 μM enzyme, apo-ACP
T1 construct: gene ituA; N-terminally His-tagged fusion of ItuAL (584 aa, RB14) with adjacent MycACP (ATCC6633); pET28a, E. coli BL21-AI; ACP in apo-form; catalytic pocket lies wholly in ItuAL; with Mycosubtilin synthase subunit A, first acyl carrier protein domain
T1 sequence (Q93I56 entry or part of it F208G, one chain of several): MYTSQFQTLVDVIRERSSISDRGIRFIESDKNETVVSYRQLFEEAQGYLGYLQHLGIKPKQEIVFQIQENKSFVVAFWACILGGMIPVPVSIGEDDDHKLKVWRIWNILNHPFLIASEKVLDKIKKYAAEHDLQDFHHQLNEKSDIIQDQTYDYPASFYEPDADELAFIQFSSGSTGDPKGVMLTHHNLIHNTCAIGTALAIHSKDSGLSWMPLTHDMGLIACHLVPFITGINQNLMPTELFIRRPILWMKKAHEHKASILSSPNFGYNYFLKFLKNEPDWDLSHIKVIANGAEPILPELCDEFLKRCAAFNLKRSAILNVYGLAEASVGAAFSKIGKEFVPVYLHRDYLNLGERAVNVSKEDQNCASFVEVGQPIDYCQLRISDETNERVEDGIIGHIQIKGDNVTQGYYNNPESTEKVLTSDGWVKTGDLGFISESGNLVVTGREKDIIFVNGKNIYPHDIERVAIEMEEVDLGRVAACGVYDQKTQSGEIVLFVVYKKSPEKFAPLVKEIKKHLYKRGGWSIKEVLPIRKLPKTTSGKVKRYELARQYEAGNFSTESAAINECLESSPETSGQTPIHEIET

[2] = target: T2, ItuAL_WT-MycACP (ituAL-ACP1) (Bacillus subtilis, UniProt Q93I56); test: HPLC of fatty acyl-AMP formed ([…] nm); type: biochemical; conditions: 1 mM fatty acid, 1 mM ATP, 50 mM MgCl2, 50 mM HEPES pH 7.5, 0.01% Brij35, 30% DMSO, 30 °C, 30 min; 10 μM enzyme, apo-ACP
T2 construct: gene ituA; N-terminally His-tagged fusion of ItuAL (584 aa, RB14) with adjacent MycACP (ATCC6633); pET28a, E. coli BL21-AI; ACP in apo-form; catalytic pocket lies wholly in ItuAL; with Mycosubtilin synthase subunit A, first acyl carrier protein domain
T2 sequence (Q93I56 1-584): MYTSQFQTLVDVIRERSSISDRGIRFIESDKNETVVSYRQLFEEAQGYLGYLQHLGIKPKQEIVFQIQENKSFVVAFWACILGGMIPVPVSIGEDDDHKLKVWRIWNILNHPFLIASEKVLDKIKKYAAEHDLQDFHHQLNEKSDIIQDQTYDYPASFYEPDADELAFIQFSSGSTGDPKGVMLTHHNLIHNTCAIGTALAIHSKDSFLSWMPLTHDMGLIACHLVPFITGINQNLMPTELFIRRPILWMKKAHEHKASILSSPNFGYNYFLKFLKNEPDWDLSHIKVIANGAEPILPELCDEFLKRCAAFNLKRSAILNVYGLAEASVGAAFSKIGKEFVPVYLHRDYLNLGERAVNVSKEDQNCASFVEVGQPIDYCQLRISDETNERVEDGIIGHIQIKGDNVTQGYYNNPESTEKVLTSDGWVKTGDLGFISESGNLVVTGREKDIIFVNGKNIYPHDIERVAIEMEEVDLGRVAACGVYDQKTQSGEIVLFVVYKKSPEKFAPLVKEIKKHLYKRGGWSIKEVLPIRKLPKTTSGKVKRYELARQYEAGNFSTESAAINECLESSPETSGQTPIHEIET
T2 sequence (Q9R9J1 586-668 partner limits assumed): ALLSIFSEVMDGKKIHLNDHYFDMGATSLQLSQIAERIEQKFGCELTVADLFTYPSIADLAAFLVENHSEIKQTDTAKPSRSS

SMILES	relative activity (C10 = 100%) [1]	relative activity (C10 = 100%) [2]
CCCCCCCCCCCCCCC(=O)O [C15, pentadecanoic acid]	ItuAL_F208G exhibited the highest activity against pentadecanoic acid (C15)	
CCCCCCCCCCCC(=O)O [C12, lauric acid]		ItuAL_WT exhibited the highest activity against lauric acid (C12)
